Measurements: patent US20260130395A1, “Water Dispersible Botanical Compositions” (Aquila Black Limited, priority 2021, published 2026)

Assay: Stability of cannabinoid compounds and Vitamin E components in Beverage 2 (AB Red) by LCMSMS
Format: physicochemical

## CC(=O)Oc1c(C)c(C)c2c(c1C)CCC(C)(CCC[C@H](C)CCC[C@H](C)CCCC(C)C)O2 (stereo partly drawn) [α-Tocopheryl acetate]
Stored at 8° C., 0 days
  Stability of Vitamin Es in AB Red: 12.5 µg/mL
Stored at 8° C., 1 days
  Stability of Vitamin Es in AB Red: 11.6 µg/mL
Stored at 8° C., 2 days
  Stability of Vitamin Es in AB Red: 11.5 µg/mL
Stored at 8° C., 3 days
  Stability of Vitamin Es in AB Red: 11.6 µg/mL
Stored at 8° C., 5 days
  Stability of Vitamin Es in AB Red: 12.3 µg/mL
Stored at 8° C., 8 days
  Stability of Vitamin Es in AB Red: 12.2 µg/mL
Stored at 8° C., 9 days
  Stability of Vitamin Es in AB Red: 12.1 µg/mL
Stored at 8° C., 10 days
  Stability of Vitamin Es in AB Red: 12.6 µg/mL
Stored at 8° C., 11 days
  Stability of Vitamin Es in AB Red: 11.9 µg/mL
Stored at 8° C., 12 days
  Stability of Vitamin Es in AB Red: 12.4 µg/mL
Stored at 8° C., 15 days
  Stability of Vitamin Es in AB Red: 12.0 µg/mL
Stored at 8° C., 16 days
  Stability of Vitamin Es in AB Red: 11.5 µg/mL
Stored at 8° C., 17 days
  Stability of Vitamin Es in AB Red: 11.8 µg/mL
Stored at 8° C., 18 days
  Stability of Vitamin Es in AB Red: 12.5 µg/mL
Stored at 8° C., 19 days
  Stability of Vitamin Es in AB Red: 12.5 µg/mL
Stored at 8° C., 22 days
  Stability of Vitamin Es in AB Red: 12.5 µg/mL
Stored at 8° C., 23 days
  Stability of Vitamin Es in AB Red: 11.9 µg/mL
Stored at 8° C., 24 days
  Stability of Vitamin Es in AB Red: 12.6 µg/mL
Stored at 8° C., 25 days
  Stability of Vitamin Es in AB Red: 12.3 µg/mL
Stored at 8° C., 26 days
  Stability of Vitamin Es in AB Red: 11.6 µg/mL
Stored at 8° C., 29 days
  Stability of Vitamin Es in AB Red: 11.7 µg/mL
Stored at 8° C., 30 days
  Stability of Vitamin Es in AB Red: 12.1 µg/mL
Stored at 8° C., 60 days
  Stability of Vitamin Es in AB Red: 11.4 µg/mL
Stored at 8° C., 90 days
  Stability of Vitamin Es in AB Red: 11.6 µg/mL
Stored at 8° C., 120 days
  Stability of Vitamin Es in AB Red: 11.7 µg/mL
Stored at 8° C., 150 days
  Stability of Vitamin Es in AB Red: 12.3 µg/mL
Stored at 8° C., 180 days
  Stability of Vitamin Es in AB Red: 12.6 µg/mL
Stored at 8° C., 210 days
  Stability of Vitamin Es in AB Red: 11.8 µg/mL
Stored at 8° C., 240 days
  Stability of Vitamin Es in AB Red: 11.2 µg/mL
Stored at 8° C., 270 days
  Stability of Vitamin Es in AB Red: 11.6 µg/mL
Stored at 8° C., 300 days
  Stability of Vitamin Es in AB Red: 11.2 µg/mL
Stored at 8° C., 330 days
  Stability of Vitamin Es in AB Red: 11.3 µg/mL
Stored at 8° C., 360 days
  Stability of Vitamin Es in AB Red: 11.3 µg/mL
Stored at 8° C., 390 days
  Stability of Vitamin Es in AB Red: 11.4 µg/mL
Stored at 8° C., 420 days
  Stability of Vitamin Es in AB Red: 11.2 µg/mL
Stored at 8° C., 450 days
  Stability of Vitamin Es in AB Red: 11.4 µg/mL
Stored at 8° C., 480 days
  Stability of Vitamin Es in AB Red: 10.7 µg/mL
Stored at 8° C., 510 days
  Stability of Vitamin Es in AB Red: 10.6 µg/mL
Stored at 8° C., 540 days
  Stability of Vitamin Es in AB Red: 10.8 µg/mL
Stored at 8° C., 570 days
  Stability of Vitamin Es in AB Red: 10.8 µg/mL
Stored at 21-25° C., 0 days
  Stability of Vitamin Es in AB Red: 12.5 µg/mL
Stored at 21-25° C., 1 days
  Stability of Vitamin Es in AB Red: 12.1 µg/mL
Stored at 21-25° C., 2 days
  Stability of Vitamin Es in AB Red: 12.5 µg/mL
Stored at 21-25° C., 3 days
  Stability of Vitamin Es in AB Red: 11.7 µg/mL
Stored at 21-25° C., 5 days
  Stability of Vitamin Es in AB Red: 12.2 µg/mL
Stored at 21-25° C., 8 days
  Stability of Vitamin Es in AB Red: 11.4 µg/mL
Stored at 21-25° C., 9 days
  Stability of Vitamin Es in AB Red: 11.6 µg/mL
Stored at 21-25° C., 10 days
  Stability of Vitamin Es in AB Red: 12.5 µg/mL
Stored at 21-25° C., 11 days
  Stability of Vitamin Es in AB Red: 12.3 µg/mL
Stored at 21-25° C., 12 days
  Stability of Vitamin Es in AB Red: 12.3 µg/mL
Stored at 21-25° C., 15 days
  Stability of Vitamin Es in AB Red: 12.1 µg/mL
Stored at 21-25° C., 16 days
  Stability of Vitamin Es in AB Red: 12.1 µg/mL
Stored at 21-25° C., 17 days
  Stability of Vitamin Es in AB Red: 11.3 µg/mL
Stored at 21-25° C., 18 days
  Stability of Vitamin Es in AB Red: 12.0 µg/mL
Stored at 21-25° C., 19 days
  Stability of Vitamin Es in AB Red: 12.0 µg/mL
Stored at 21-25° C., 22 days
  Stability of Vitamin Es in AB Red: 12.1 µg/mL
Stored at 21-25° C., 23 days
  Stability of Vitamin Es in AB Red: 11.7 µg/mL
Stored at 21-25° C., 24 days
  Stability of Vitamin Es in AB Red: 11.5 µg/mL
Stored at 21-25° C., 25 days
  Stability of Vitamin Es in AB Red: 12.4 µg/mL
Stored at 21-25° C., 26 days
  Stability of Vitamin Es in AB Red: 12.0 µg/mL
Stored at 21-25° C., 29 days
  Stability of Vitamin Es in AB Red: 11.9 µg/mL
Stored at 21-25° C., 30 days
  Stability of Vitamin Es in AB Red: 12.6 µg/mL
Stored at 21-25° C., 60 days
  Stability of Vitamin Es in AB Red: 11.6 µg/mL
Stored at 21-25° C., 90 days
  Stability of Vitamin Es in AB Red: 12.3 µg/mL
Stored at 21-25° C., 120 days
  Stability of Vitamin Es in AB Red: 12.3 µg/mL
Stored at 21-25° C., 150 days
  Stability of Vitamin Es in AB Red: 11.4 µg/mL
Stored at 21-25° C., 180 days
  Stability of Vitamin Es in AB Red: 12.0 µg/mL
Stored at 21-25° C., 210 days
  Stability of Vitamin Es in AB Red: 11.6 µg/mL
Stored at 21-25° C., 240 days
  Stability of Vitamin Es in AB Red: 11.3 µg/mL
Stored at 21-25° C., 270 days
  Stability of Vitamin Es in AB Red: 11.4 µg/mL
Stored at 21-25° C., 300 days
  Stability of Vitamin Es in AB Red: 11.2 µg/mL
Stored at 21-25° C., 330 days
  Stability of Vitamin Es in AB Red: 11.6 µg/mL
Stored at 21-25° C., 360 days
  Stability of Vitamin Es in AB Red: 11.1 µg/mL
Stored at 21-25° C., 390 days
  Stability of Vitamin Es in AB Red: 11.3 µg/mL
Stored at 21-25° C., 420 days
  Stability of Vitamin Es in AB Red: 11.3 µg/mL
Stored at 21-25° C., 450 days
  Stability of Vitamin Es in AB Red: 11.2 µg/mL
Stored at 21-25° C., 480 days
  Stability of Vitamin Es in AB Red: 10.4 µg/mL
Stored at 21-25° C., 510 days
  Stability of Vitamin Es in AB Red: 10.4 µg/mL
Stored at 21-25° C., 540 days
  Stability of Vitamin Es in AB Red: 10.6 µg/mL
Stored at 21-25° C., 570 days
  Stability of Vitamin Es in AB Red: 10.6 µg/mL
